Test results published in ChEMBL document CHEMBL4765465, “Photoactive Bifunctional Degraders: Precision Tools To Regulate Protein Stability” (J Med Chem, 2020).

Tests used:
[1] = system: CWR22R; experiment: Growth inhibition of human 22Rv1 cells preincubated for 15 mins followed by UV irradiation and measured after 72 hrs by Celltiter-Glo assay; format: functional; conditions: time 72.25 hrs
[2] = Half life of compound by UV-Visible spectrophotometric method; format: physicochemical

With `Cc1sc2c(c1C)C(c1ccc(Cl)cc1)=N[C@@H](CC(=O)NCCOCCOCCNC(=O)COc1cccc3c1C(=O)N(C1CCC(=O)N(COC(C)c4cc5c(cc4[N+](=O)[O-])OCO5)C1=O)C3=O)c1nnc(C)n1-2` (some centres not stated) the “growth inhibition (GI)” value [1] was “<=39%”.

`COc1cc(COC(=O)N2C(=O)CCC(N3C(=O)c4cccc(OCC(=O)NCCCCNC(=O)C[C@@H]5N=C(c6ccc(Cl)cc6)c6c(sc(C)c6C)-n6c(C)nnc65)c4C3=O)C2=O)c([N+](=O)[O-])cc1OC` (some centres not stated) showed a half-life [2] of 58 min.
